Reference: US11633393B2, “Tubulin binding compounds and therapeutic use thereof” (BeyondSpring Pharmaceuticals, Inc., priority 2017, dated 2023)

Tested on: bovine brain tubulin
Assay: Microtubule pelleting assay
Assay type: biochemical
Conditions: 100 μM compound, microtubules 2 mg/mL, 30 min at 37° C.
Method: A microtubule pelleting assay is used to test in vitro the direct effect of the tubulin binding compounds described herein such as the compounds listed in Tables 1, 2, and 3. […] Freshly polymerised/depolymerised bovine brain tubulin is supplemented with 34% Glycerol and 1 mM GTP and adjusted to a concentration of 4 mg/mL. Polymerization into microtubule is achieved by incubating the tubulin at 37° C. for 30 min.
To assess the effect of the compounds tested, a final concentration of 100 μM is added to the warm microtubules diluted at 2 mg/mL and after a 30 min incubation at 37° C., the reaction mixture is added on top of a glycerol cushion. After high speed centrifugation at 80,000 rpm for 15 min, the microtubule pellet fractions are separated from the supernatant fractions and analyzed by SDS-PAGE. In the presence of the 3 MDAs, the tubulin band is observed in the pellet fractions, which indicates the […] effect of these compounds. […] The test compounds generally show destabilizing effect on microtubules.

**Q.** Which “effect on microtubules (tubulin in pellet vs supernatant fractions, SDS-PAGE)” value does the source give for `CC(=O)O[C@H]1C(=O)[C@@]2(C)[C@H]([C@H](OC(=O)c3ccccc3)[C@]3(O)C[C@H](OC(=O)[C@H](O)[C@@H](NC(=O)c4ccccc4)c4ccccc4)C(C)=C1C3(C)C)[C@]1(OC(C)=O)CO[C@@H]1C[C@@H]2O` [taxol] here?
**A.** increases the amount of tubulin observed in the pellet fraction
